Like-named read-outs stand apart in the source and are kept apart here.
Experiments:
[1] = ref Comptox, PubChem or DrugBank; cited from earlier work
[2] = tested on: ZF4 (fibroblasts) cell line; assay: alamarBlue (AB) endpoint of AB/CFDA/NR multiplex, cellular respiration; format: cell-based, zebrafish (Danio rerio); conditions: Danio rerio, Fibroblast
[3] = tested on: ZFL (hepatocytes) cell line; assay: cells; format: cell-based, zebrafish (Danio rerio); conditions: Danio rerio, Hepatocyte
[4] = tested on: ZF4 and ZFL cell lines; assay: Cytotoxicity assays, all endpoints, both cell lines (mean/range); format: cell-based, zebrafish (Danio rerio); conditions: 48 h
[5] = tested on: ZFL (hepatocytes) cell line; assay: cells; format: cell-based, zebrafish (Danio rerio); conditions: Danio rerio, Hepatocyte; remark: listed apart in the source
[6] = tested on: ZF4 (fibroblasts) cell line; assay: MTS assay (MTS/BCA multiplex), NAD(P)H metabolism; format: cell-based, zebrafish (Danio rerio); conditions: Danio rerio, Fibroblast
[7] = tested on: zebrafish embryos; parameters: method as in earlier work; conditions: nominal, cited from earlier work
[8] = tested on: ZF4 (fibroblasts) cell line; assay: CFDA endpoint of AB/CFDA/NR multiplex, membrane stability; format: cell-based, zebrafish (Danio rerio); conditions: Danio rerio, Fibroblast
[9] = tested on: zebrafish cell lines vs zebrafish embryo; assay: Potency ratios IC50;x/EC50;x (cytotoxicity assays vs mFET); parameters: species or system zebrafish (Danio rerio)
[10] = tested on: zebrafish embryos; assay: animal or person; format: in vivo, zebrafish (Danio rerio); conditions: for EC50: Danio rerio
[11] = tested on: ZF4 (fibroblasts) cell line; assay: Neutral red, fluorescence (NRf), AB/CFDA/NR multiplex, lysosome stability; format: cell-based, zebrafish (Danio rerio); conditions: Danio rerio, Fibroblast
[12] = tested on: ZF4 (fibroblasts) cell line; assay: ATP assay (ATP/LDH multiplex), ATP metabolism; format: cell-based, zebrafish (Danio rerio); conditions: Danio rerio, Fibroblast
[13] = tested on: ZF4 (fibroblasts) cell line; assay: Neutral red, absorbance (NRa), AB/CFDA/NR multiplex, lysosome stability; format: cell-based, zebrafish (Danio rerio); conditions: Danio rerio, Fibroblast
[14] = tested on: ZFL (hepatocytes) cell line; assay: cells; format: cell-based, zebrafish (Danio rerio); conditions: Danio rerio, Hepatocyte; remark: listed apart in the source
[15] = tested on: ZFL (hepatocytes) cell line; assay: cells; format: cell-based, zebrafish (Danio rerio); conditions: Danio rerio, Hepatocyte; remark: listed apart in the source
[16] = tested on: ZFL (hepatocytes) cell line; assay: cells; format: cell-based, zebrafish (Danio rerio); conditions: Danio rerio, Hepatocyte; remark: listed apart in the source
[17] = tested on: ZFL (hepatocytes) cell line; assay: cells; format: cell-based, zebrafish (Danio rerio); conditions: Danio rerio, Hepatocyte; remark: listed apart in the source
[18] = tested on: ZF4 (fibroblasts) cell line; assay: BCA assay (MTS/BCA multiplex), protein amount; format: cell-based, zebrafish (Danio rerio); conditions: Danio rerio, Fibroblast
[19] = tested on: ZFL (hepatocytes) cell line; assay: cells; format: cell-based, zebrafish (Danio rerio); conditions: Danio rerio, Hepatocyte; remark: listed apart in the source

Compound: CC1(C)C(C=C(Cl)c2ccc(Cl)cc2)C1C(=O)OC(C#N)c1ccc(F)c(Oc2ccccc2)c1 (centres unmarked) [Flumethrin, flumethrin]
- Physiological charge [1]: 0
- logKoa [1]: 11.7
- logKow [1]: 6.97
- IC50 ([2]; AB - ZF4, log10 of IC50, read-out: LogIC50 (converted)): 351 µM
- IC50 ([2]; AB - ZF4, read-out: IC50): 351 µM
- IC50 ([2]; ZF4, 48 h exposure, nominal, log10, read-out: logIC50 (log10 IC50;nom) AB (converted)): 347 µM
- IC50 ([2]; ZF4, 48 h exposure, nominal, read-out: IC50;nom AB): 351 µM
- IC50 ([3]; NR-fluo - ZFL, log10 of IC50, read-out: LogIC50 (converted)): 159 µM
- IC50 ([3]; NR-fluo - ZFL, read-out: IC50): 159 µM
- IC50 ([3]; ZFL, 48 h exposure, nominal, log10, read-out: logIC50 (log10 IC50;nom) NRf (converted)): 158 µM
- IC50 ([3]; ZFL, 48 h exposure, nominal, read-out: IC50;nom NRf): 159 µM
- IC50 ([4]; Danio rerio, read-out: Mean log IC50nom, mean of all cytotoxicity endpoints (without LDH) in ZF4 and ZFL, 48 h, log10 (converted)): 229 µM
- Mean log IC50nom ([4]; mean of all cytotoxicity endpoints (without LDH) in ZF4 and ZFL, log10, listed as Flu): -3.637 M
- IC50 ([5]; ATP - ZFL, log10 of IC50, read-out: LogIC50 (converted)): 441 µM
- IC50 ([5]; ATP - ZFL, read-out: IC50): 441 µM
- IC50 ([5]; ZFL, 48 h exposure, nominal, log10, read-out: logIC50 (log10 IC50;nom) ATP (converted)): 437 µM
- IC50 ([5]; ZFL, 48 h exposure, nominal, read-out: IC50;nom ATP): 441 µM
- IC50 ([6]; MTS - ZF4, log10 of IC50, read-out: LogIC50 (converted)): 83.1 µM
- IC50 ([6]; MTS - ZF4, read-out: IC50): 83.1 µM
- IC50 ([6]; ZF4, 48 h exposure, nominal, log10, read-out: logIC50 (log10 IC50;nom) MTS (converted)): 83.2 µM
- IC50 ([6]; ZF4, 48 h exposure, nominal, read-out: IC50;nom MTS): 83.1 µM
- EC50 ([7]; 144 hpf, converted): 0.216 µM
- logEC50 144 hpf ([7]; log10): -6.667 M
- IC50 ([8]; CFDA - ZF4, log10 of IC50, read-out: LogIC50 (converted)): 170 µM
- IC50 ([8]; CFDA - ZF4, read-out: IC50): 170 µM
- IC50 ([8]; ZF4, 48 h exposure, nominal, log10, read-out: logIC50 (log10 IC50;nom) CFDA (converted)): 170 µM
- IC50 ([8]; ZF4, 48 h exposure, nominal, read-out: IC50;nom CFDA): 170 µM
- in vitro toxicity (IC50;free) higher than EC50;nom ([9]; ZF4 NRa endpoint vs embryo): 10 fold
- potency ratio IC50;nom/EC50;nom (median) ([9]; median over cytotoxicity endpoints, nominal, 48 h cells / 48 hpf mFET): 698
- difference in sensitivity between embryo (EC50;nom) and cells (IC50;nom) ([9]; nominal concentrations, higher potency in the mFET): two to three log-scales more sensitive in the mFET
- potency ratio IC50;nom/EC50;nom, BCA-ZFL endpoint ([9]; single endpoint BCA-ZFL, less sensitive in the cell-based assay): 10,000 fold
- difference in toxicity (EC50;nom) between 48 hpf and 144 hpf ([10]; 48 hpf time point less sensitive than 144 hpf): approximately the same
- log EC50;nom (mFET) ([10]; 48 hpf, nominal, log10, listed as Flu): -6.562 M
- EC50 ([10]; 48 hpf, nominal, log10, read-out: log EC50;nom (mFET) (converted)): 0.275 µM
- EC50 ([10]; 48 hpf, nominal, read-out: EC50;nom (embryo)): 0.14 µg/mL
- EC50 ([10]; read-out: EC50 48hpf): 0.274 µM
- EC50 ([10]; read-out: EC50;nom (mFET)): 0.274 µM
- IC50 ([11]; NR-fluo - ZF4, log10 of IC50, read-out: LogIC50 (converted)): 213 µM
- IC50 ([11]; NR-fluo - ZF4, read-out: IC50): 213 µM
- IC50 ([11]; ZF4, 48 h exposure, nominal, log10, read-out: logIC50 (log10 IC50;nom) NRf (converted)): 214 µM
- IC50 ([11]; ZF4, 48 h exposure, nominal, read-out: IC50;nom NRf): 213 µM
- IC50 ([12]; ATP - ZF4, log10 of IC50, read-out: LogIC50 (converted)): 317 µM
- IC50 ([12]; ATP - ZF4, read-out: IC50): 317 µM
- IC50 ([12]; ZF4, 48 h exposure, nominal, log10, read-out: logIC50 (log10 IC50;nom) ATP (converted)): 316 µM
- IC50 ([12]; ZF4, 48 h exposure, nominal, read-out: IC50;nom ATP): 317 µM
- IC50 ([13]; NR-abs - ZF4, log10 of IC50, read-out: LogIC50 (converted)): 104 µM
- IC50 ([13]; NR-abs - ZF4, read-out: IC50): 104 µM
- IC50 ([13]; ZF4, 48 h exposure, nominal, log10, read-out: logIC50 (log10 IC50;nom) NRa (converted)): 105 µM
- IC50 ([13]; ZF4, 48 h exposure, nominal, read-out: IC50;nom NRa): 104 µM
- IC50 ([13]; ZF4 cell line, NRa endpoint, nominal, read-out: IC50;nom): 53.1 µg/mL
- IC50 ([14]; NR-abs - ZFL, log10 of IC50, read-out: LogIC50 (converted)): 160 µM
- IC50 ([14]; NR-abs - ZFL, read-out: IC50): 160 µM
- IC50 ([14]; ZFL, 48 h exposure, nominal, log10, read-out: logIC50 (log10 IC50;nom) NRa (converted)): 158 µM
- IC50 ([14]; ZFL, 48 h exposure, nominal, read-out: IC50;nom NRa): 160 µM
- IC50 ([15]; MTS - ZFL, log10 of IC50, read-out: LogIC50 (converted)): 414 µM
- IC50 ([15]; MTS - ZFL, read-out: IC50): 414 µM
- IC50 ([15]; ZFL, 48 h exposure, nominal, log10, read-out: logIC50 (log10 IC50;nom) MTS (converted)): 417 µM
- IC50 ([15]; ZFL, 48 h exposure, nominal, read-out: IC50;nom MTS): 414 µM
- IC50 ([16]; CFDA - ZFL, log10 of IC50, read-out: LogIC50 (converted)): 118 µM
- IC50 ([16]; CFDA - ZFL, read-out: IC50): 118 µM
- IC50 ([16]; ZFL, 48 h exposure, nominal, log10, read-out: logIC50 (log10 IC50;nom) CFDA (converted)): 117 µM
- IC50 ([16]; ZFL, 48 h exposure, nominal, read-out: IC50;nom CFDA): 118 µM
- IC50 ([17]; BCA - ZFL, log10 of IC50, read-out: LogIC50 (converted)): 6130 µM
- IC50 ([17]; BCA - ZFL, read-out: IC50): 6130 µM
- IC50 ([17]; ZFL, 48 h exposure, nominal, log10, read-out: logIC50 (log10 IC50;nom) BCA (converted)): 6170 µM
- IC50 ([17]; ZFL, 48 h exposure, nominal, read-out: IC50;nom BCA): 6130 µM
- IC50 ([18]; BCA - ZF4, log10 of IC50, read-out: LogIC50 (converted)): 42.1 µM
- IC50 ([18]; BCA - ZF4, read-out: IC50): 42.1 µM
- IC50 ([18]; ZF4, 48 h exposure, nominal, log10, read-out: logIC50 (log10 IC50;nom) BCA (converted)): 41.7 µM
- IC50 ([18]; ZF4, 48 h exposure, nominal, read-out: IC50;nom BCA): 42.1 µM
- IC50 ([19]; AB - ZFL, log10 of IC50, read-out: LogIC50 (converted)): 244 µM
- IC50 ([19]; AB - ZFL, read-out: IC50): 244 µM
- IC50 ([19]; ZFL, 48 h exposure, nominal, log10, read-out: logIC50 (log10 IC50;nom) AB (converted)): 245 µM
- IC50 ([19]; ZFL, 48 h exposure, nominal, read-out: IC50;nom AB): 244 µM

From PMC7872314, “Modeling Bioavailable Concentrations in Zebrafish Cell Lines and Embryos Increases the Correlation of Toxicity Potencies across Test Systems” (Environmental Science & Technology, 2020)
